Active and inactive are the calls of the source.
What was measured:
Vero = Vero cell cytotoxicity, cytotoxicity control for flavivirus capping enzyme inhibitors (AID 588742); type: functional; settings: Chlorocebus sabaeus
Large T antigen = Large T antigen (Simian virus 40, UniProt P03070); type: functional, Betapolyomavirus macacae;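 further: Confirmatory-stage PubChem screen for compounds that inhibit SV40 T antigen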
Beta-galactosidase = Beta-galactosidase (Escherichia coli, UniProt Q8VNN2); assay: beta-galactosidase enzyme inhibitors and activators, dose response, artefact control for CCR6 antagonist project, biochemical, E. coli enzyme, set 3 (AID 504712); type: functional
[1] = target: Peroxisome proliferator-activated receptor gamma/Nuclear receptor coactivator 2 (Homo sapiens, UniProt P37231); assay: (§1) TR-FRET dose response biochemical High Throughput Screening assay for agonists of the steroid receptor coactivator 2 (SRC-2) recruitment by the peroxisome proliferator-activated receptor gamma (PPAR gamma): non-selective agonists. [Related pubchem assays: 1297, 1032 ]; type: functional
[2] = target: Peroxisome proliferator-activated receptor gamma/Nuclear receptor coactivator 3 (Homo sapiens, UniProt P37231); assay: as §1, with “3 (SRC-3)” for “2 (SRC-2)”, “1301 (Confirmation screen.), 1048 (Primary screen.)]” for “1297, 1032 ]”; type: functional
[3] = target: Peroxisome proliferator-activated receptor gamma/Nuclear receptor coactivator 1 (Homo sapiens, UniProt P37231); assay: as §1, with “1 (SRC-1)” for “2 (SRC-2)”, “assays (depositor defined):AID1300, AID1808, AID504735, AID631]” for “assays: 1297, 1032 ]”; type: protein assay
[4] = target: T1, Microphthalmia-associated transcription factor (Homo sapiens, UniProt O75030); assay: TRPM1 promoter luciferase signal decrease, dose response, MITF inhibitor project, cell-based, SK-MEL-5, cherry-picked, set 3 (AID 493073); type: functional
T1 sequence (O75030 whole entry): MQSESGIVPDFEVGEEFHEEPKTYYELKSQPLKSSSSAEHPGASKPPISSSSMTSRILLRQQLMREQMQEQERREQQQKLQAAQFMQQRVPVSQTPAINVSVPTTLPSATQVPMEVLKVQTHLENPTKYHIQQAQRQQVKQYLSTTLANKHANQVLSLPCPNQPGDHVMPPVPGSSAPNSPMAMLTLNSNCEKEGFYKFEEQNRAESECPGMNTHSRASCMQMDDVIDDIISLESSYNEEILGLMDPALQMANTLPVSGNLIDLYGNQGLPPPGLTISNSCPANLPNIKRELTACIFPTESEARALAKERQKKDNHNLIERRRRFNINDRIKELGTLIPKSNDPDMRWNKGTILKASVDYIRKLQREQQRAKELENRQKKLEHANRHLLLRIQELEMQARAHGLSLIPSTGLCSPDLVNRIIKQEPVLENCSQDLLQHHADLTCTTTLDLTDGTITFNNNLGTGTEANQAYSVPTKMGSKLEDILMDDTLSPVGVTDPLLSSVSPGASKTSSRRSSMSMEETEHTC

Phospholipase A2 = Phospholipase A2 (Homo sapiens, UniProt P04054); type: functional;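 further: confirmatory dose-response counterscreen on phospholipase A2, testing hits that came from an ultra-high-throughput screen for ATG4B inhibitors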
Cysteine protease ATG4B = target: T2, Cysteine protease ATG4B (Homo sapiens, UniProt Q9Y4P1); type: functional;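 further: Fluorescence-based dose-response confirmation assay measuring inhibition of ATG4B activity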
T2 sequence (Q9Y4P1 whole entry): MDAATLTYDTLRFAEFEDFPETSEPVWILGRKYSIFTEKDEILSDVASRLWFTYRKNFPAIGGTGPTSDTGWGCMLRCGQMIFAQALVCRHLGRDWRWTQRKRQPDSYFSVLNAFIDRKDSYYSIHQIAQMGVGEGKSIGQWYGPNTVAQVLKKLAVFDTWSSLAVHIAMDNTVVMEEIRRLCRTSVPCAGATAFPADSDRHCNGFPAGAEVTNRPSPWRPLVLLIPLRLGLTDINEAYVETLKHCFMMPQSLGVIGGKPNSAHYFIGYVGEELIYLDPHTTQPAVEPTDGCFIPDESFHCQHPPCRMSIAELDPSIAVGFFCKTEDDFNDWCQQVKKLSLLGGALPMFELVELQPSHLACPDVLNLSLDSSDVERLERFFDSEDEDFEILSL

[5] = target: T3, Ubiquitin-conjugating enzyme E2 N (Homo sapiens, UniProt P61088); type: functional;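 further: Dose-response confirmation in a TR-FRET assay detecting UBC13-driven polyubiquitin chain formation, inhibition measured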
T3 sequence (P61088 whole entry): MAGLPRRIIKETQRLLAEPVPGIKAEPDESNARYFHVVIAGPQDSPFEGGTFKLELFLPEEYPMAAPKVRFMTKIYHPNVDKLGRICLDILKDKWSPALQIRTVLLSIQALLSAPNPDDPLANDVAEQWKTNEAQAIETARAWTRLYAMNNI

[6] = target: T4, DNA repair protein RAD52 homolog (Homo sapiens, UniProt P43351); type: functional, biochemical
T4 sequence (P43351 whole entry): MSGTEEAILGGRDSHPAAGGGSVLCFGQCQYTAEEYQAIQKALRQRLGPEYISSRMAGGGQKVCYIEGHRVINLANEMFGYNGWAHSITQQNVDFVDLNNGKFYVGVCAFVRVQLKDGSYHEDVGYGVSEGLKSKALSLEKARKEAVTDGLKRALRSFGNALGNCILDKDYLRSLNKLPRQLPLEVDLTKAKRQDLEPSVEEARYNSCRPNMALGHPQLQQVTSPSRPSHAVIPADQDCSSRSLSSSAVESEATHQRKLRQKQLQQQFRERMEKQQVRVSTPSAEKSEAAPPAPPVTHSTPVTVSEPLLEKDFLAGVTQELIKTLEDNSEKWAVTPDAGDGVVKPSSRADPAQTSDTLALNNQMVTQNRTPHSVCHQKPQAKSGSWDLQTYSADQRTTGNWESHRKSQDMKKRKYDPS

Protein RecA = target: T5, Protein RecA (Mycobacterium tuberculosis, UniProt P9WHJ3); assay: Fluorescence Cell-Free Homogeneous Dose Retest to Identify Inhibitors of RecA-Intein Splicing Activity. [Related pubchem assays (depositor defined):AID2097, AID2223, AID489010, AID492950]; type: functional
T5 sequence (P9WHJ3 whole entry): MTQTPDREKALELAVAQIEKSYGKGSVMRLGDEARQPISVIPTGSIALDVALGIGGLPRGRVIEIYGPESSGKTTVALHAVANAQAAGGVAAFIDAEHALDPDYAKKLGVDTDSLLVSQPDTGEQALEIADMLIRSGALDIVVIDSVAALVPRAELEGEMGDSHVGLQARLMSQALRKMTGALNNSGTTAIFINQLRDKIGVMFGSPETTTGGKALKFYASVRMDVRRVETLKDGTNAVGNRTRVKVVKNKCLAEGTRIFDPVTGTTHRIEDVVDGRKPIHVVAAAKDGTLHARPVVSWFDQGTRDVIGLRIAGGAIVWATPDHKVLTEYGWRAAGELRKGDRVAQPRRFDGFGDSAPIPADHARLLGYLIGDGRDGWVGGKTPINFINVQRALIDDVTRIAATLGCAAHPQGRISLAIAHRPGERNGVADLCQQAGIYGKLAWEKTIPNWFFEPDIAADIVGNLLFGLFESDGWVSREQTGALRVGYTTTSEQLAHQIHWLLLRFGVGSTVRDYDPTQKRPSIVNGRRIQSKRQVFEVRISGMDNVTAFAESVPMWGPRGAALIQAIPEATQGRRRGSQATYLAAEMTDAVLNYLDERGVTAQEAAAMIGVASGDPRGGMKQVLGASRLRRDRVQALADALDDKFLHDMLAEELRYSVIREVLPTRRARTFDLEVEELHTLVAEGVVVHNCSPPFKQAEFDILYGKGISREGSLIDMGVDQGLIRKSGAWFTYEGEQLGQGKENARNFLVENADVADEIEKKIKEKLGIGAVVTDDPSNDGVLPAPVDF

[7] = target: T6, RNA-binding protein pos-1 (Caenorhabditis elegans, UniProt G5EF15); assay: inhibitors of POS-1/mex-3 RNA binding, dose response, biochemical, fluorescence polarization (AID 1964);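 further: purified POS-1 fused to maltose binding protein made in E. coli; potency of compounds blocking POS-1 binding to fluorescent RNA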
T6 sequence (G5EF15 whole entry): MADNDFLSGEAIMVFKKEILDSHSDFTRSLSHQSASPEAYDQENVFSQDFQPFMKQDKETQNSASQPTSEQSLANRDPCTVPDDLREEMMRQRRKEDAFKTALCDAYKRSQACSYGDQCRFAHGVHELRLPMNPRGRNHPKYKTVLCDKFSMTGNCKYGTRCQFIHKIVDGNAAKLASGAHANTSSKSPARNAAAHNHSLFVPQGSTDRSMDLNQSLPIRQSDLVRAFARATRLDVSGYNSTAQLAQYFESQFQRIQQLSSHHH

[8] = target: T7, Zinc finger protein mex-5 (Caenorhabditis elegans, UniProt Q9XUB2); assay: MEX-5/TCR-2 RNA interaction inhibitors, dose response, biochemical, C. elegans, fluorescence polarization (AID 1960)
T7 sequence (Q9XUB2 whole entry): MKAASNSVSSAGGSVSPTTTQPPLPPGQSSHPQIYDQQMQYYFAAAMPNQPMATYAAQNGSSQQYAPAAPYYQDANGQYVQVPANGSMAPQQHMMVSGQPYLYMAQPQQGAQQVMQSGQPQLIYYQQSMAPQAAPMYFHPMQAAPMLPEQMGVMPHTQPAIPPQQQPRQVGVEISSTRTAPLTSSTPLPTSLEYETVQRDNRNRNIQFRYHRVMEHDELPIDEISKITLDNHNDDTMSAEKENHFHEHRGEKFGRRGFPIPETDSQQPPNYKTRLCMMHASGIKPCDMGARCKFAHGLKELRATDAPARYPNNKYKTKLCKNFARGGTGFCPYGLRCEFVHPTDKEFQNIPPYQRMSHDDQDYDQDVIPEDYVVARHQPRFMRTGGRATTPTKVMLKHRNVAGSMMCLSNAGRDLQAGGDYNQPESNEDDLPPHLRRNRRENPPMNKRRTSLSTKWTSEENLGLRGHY

[9] = target: T8, Replicative DNA helicase DnaB (Mycobacterium tuberculosis, UniProt P9WMR3); assay: DnaB intein splicing inhibitors, dose response, biochemical, cell-free fluorescence (AID 449749); type: functional
T8 sequence (P9WMR3 whole entry): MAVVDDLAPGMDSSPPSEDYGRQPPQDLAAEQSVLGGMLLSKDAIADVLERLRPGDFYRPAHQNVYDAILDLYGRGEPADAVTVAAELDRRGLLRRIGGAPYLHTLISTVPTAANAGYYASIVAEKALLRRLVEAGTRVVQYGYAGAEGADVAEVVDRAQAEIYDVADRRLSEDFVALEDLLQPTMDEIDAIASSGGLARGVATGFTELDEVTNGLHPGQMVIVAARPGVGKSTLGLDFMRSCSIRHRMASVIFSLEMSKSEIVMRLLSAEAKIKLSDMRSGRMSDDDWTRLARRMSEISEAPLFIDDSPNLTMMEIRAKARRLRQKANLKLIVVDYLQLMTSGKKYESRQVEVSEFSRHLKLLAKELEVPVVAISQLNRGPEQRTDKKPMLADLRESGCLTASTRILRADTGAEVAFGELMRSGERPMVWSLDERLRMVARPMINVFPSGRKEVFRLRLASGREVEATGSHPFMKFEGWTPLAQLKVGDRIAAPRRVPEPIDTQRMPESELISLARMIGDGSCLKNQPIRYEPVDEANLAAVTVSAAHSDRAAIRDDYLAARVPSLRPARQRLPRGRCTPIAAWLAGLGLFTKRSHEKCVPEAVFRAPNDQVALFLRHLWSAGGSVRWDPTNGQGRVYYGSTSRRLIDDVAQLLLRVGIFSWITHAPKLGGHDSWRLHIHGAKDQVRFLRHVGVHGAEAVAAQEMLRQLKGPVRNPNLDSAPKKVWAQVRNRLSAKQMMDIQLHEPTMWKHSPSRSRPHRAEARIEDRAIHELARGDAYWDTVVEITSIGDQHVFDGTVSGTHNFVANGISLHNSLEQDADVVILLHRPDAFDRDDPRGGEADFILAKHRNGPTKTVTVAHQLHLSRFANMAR

Chain of Peroxisome proliferator-activated receptor gamma/Nuclear receptor coactivator 2 (P37231 whole entry): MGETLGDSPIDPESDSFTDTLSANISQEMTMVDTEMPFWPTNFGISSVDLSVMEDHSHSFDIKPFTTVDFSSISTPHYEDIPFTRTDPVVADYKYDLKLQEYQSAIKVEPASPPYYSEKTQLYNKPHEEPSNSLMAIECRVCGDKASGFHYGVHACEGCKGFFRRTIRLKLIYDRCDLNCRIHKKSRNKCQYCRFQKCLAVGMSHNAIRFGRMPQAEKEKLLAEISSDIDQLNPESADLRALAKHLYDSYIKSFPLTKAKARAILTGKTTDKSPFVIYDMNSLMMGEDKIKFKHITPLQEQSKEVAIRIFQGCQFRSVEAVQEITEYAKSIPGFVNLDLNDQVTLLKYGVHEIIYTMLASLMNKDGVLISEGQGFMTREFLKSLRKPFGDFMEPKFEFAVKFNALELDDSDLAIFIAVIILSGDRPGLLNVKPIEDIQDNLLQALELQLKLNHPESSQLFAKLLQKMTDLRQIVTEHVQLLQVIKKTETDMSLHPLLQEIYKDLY
Chain of Peroxisome proliferator-activated receptor gamma/Nuclear receptor coactivator 2 (Q15596 whole entry, further chain): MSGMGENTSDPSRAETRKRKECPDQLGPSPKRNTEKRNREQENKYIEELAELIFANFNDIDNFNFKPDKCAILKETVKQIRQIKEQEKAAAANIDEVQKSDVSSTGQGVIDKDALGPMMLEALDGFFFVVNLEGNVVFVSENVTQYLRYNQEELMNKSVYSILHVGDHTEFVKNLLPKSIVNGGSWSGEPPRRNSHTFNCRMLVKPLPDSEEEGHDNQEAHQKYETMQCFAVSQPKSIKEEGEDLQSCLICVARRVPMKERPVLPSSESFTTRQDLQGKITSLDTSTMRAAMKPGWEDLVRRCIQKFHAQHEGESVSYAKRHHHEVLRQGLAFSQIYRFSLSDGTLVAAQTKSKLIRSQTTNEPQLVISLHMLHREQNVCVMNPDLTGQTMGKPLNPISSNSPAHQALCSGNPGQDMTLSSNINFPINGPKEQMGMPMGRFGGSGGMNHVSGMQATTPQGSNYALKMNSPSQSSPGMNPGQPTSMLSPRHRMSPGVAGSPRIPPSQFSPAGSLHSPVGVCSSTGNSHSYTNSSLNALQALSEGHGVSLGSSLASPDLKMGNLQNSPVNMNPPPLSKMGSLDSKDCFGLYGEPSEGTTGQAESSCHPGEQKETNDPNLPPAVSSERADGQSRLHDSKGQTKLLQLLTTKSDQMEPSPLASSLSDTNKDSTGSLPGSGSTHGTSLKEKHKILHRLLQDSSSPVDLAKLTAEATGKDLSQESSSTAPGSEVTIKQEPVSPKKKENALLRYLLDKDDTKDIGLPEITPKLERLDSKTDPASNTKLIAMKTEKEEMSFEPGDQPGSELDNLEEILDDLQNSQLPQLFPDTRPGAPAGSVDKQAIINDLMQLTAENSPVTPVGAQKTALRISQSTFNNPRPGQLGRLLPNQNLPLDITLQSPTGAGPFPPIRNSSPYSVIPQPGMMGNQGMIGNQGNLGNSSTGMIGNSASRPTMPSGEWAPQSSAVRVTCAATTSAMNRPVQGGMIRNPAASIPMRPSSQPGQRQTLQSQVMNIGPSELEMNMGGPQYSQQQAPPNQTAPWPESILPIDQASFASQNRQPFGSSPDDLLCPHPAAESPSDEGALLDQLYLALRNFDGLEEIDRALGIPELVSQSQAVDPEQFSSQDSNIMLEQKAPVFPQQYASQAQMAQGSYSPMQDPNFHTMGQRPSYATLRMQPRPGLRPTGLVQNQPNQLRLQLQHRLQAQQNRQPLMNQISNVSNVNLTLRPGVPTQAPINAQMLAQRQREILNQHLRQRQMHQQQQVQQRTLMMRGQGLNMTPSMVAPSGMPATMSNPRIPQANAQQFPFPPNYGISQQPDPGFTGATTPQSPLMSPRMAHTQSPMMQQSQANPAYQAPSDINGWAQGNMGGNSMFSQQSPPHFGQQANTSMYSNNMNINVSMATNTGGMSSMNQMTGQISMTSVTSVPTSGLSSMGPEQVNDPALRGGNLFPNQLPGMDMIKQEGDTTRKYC
Chain of Peroxisome proliferator-activated receptor gamma/Nuclear receptor coactivator 1 (P37231 whole entry): as the sequence (P37231 whole entry) above
Chain of Peroxisome proliferator-activated receptor gamma/Nuclear receptor coactivator 1 (Q15788 whole entry, further chain): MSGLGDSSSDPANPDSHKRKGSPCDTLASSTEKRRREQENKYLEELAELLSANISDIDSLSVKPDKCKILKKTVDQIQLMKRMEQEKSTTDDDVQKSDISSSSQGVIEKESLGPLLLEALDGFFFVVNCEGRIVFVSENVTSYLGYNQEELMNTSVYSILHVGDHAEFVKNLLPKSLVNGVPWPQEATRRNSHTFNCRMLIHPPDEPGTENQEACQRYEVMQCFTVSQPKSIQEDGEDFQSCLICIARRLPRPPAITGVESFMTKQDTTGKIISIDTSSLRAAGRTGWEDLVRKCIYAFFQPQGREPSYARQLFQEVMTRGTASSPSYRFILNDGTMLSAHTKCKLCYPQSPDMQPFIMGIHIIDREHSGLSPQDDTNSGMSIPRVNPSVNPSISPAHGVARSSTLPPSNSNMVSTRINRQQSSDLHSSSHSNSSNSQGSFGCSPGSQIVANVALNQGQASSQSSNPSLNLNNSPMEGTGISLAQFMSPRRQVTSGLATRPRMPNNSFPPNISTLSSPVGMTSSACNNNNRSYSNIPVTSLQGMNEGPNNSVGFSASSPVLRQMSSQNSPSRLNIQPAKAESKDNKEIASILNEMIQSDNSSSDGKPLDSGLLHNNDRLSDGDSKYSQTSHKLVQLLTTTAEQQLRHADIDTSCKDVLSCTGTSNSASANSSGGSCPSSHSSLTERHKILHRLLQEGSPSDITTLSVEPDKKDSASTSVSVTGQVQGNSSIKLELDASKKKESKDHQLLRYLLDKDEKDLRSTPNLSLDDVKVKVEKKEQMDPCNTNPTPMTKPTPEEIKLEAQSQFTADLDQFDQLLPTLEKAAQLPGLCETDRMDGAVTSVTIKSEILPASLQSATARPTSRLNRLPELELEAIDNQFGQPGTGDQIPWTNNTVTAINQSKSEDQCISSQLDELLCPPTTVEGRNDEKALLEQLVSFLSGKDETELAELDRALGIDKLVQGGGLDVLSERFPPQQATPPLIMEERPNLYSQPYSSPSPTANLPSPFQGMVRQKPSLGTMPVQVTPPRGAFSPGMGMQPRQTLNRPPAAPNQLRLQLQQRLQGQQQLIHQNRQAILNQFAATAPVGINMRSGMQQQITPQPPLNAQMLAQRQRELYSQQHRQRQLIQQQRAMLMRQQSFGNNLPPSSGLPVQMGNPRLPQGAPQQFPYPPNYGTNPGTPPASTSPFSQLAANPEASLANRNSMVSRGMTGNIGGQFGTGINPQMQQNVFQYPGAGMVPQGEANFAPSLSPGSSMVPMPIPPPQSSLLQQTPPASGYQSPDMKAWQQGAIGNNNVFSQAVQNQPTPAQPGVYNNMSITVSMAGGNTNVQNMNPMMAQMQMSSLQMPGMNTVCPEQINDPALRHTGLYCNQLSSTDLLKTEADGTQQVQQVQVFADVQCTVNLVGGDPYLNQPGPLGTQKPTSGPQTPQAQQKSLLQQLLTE
Chain of Phospholipase A2 (P04054 whole entry): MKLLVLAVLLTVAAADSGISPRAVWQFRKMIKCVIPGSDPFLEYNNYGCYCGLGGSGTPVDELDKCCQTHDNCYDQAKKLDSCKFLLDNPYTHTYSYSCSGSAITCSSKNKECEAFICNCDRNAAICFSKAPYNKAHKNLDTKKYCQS
Chain of Beta-galactosidase (Q8VNN2 whole entry): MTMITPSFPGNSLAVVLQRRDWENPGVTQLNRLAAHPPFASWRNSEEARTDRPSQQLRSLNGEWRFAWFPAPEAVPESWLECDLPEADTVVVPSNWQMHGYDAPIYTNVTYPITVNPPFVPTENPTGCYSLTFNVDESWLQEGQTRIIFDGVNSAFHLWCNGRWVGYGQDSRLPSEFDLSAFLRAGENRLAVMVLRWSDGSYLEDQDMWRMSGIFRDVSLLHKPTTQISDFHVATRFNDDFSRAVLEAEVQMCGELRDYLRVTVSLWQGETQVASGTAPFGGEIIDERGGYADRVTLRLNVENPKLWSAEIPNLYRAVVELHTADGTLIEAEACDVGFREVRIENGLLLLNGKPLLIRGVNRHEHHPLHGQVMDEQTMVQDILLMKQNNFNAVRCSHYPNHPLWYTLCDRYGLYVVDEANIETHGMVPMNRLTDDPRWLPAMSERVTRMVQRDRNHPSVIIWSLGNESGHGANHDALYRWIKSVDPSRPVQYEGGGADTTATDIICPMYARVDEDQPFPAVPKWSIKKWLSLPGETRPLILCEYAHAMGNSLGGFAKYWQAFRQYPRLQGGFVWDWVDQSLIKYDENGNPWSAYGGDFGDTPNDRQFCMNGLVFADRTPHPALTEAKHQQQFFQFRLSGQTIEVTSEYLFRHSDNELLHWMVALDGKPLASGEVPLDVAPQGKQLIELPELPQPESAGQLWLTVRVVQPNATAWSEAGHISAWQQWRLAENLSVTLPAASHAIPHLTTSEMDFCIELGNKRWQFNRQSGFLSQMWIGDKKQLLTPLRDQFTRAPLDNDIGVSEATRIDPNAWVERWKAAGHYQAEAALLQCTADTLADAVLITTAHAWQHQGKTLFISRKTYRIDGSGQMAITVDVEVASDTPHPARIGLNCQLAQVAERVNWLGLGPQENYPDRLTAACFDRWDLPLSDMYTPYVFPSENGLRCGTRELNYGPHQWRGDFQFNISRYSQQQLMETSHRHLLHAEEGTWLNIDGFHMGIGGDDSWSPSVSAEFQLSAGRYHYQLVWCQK

Row | SMILES | EC50 [1] | EC50 [2] | EC50 [3] | AC50 [4] | also measured
1 | CCOc1c(Br)cc(CNc2ccc(N3CCOCC3)cc2)cc1OC | – | – | – | – | CC50 (Vero): > 40 µM (active); IC50 (Large T antigen): 8.16 µM (active)
2 | CCN(CC)CCNC(=S)NC(=O)c1cn(-c2ccccc2)nc1-c1ccc(OC)cc1 | – | – | – | – | IC50 (Beta-galactosidase): > 66.6 µM (inactive); CC50 (Vero): > 40 µM (active)
3 | Cc1ccc(S(=O)(=O)NCC(=O)OCC(=O)c2ccc(Br)s2)cc1 | 8.2 µM (active) | > 79.4 µM (not active) | 60 µM (inactive) | – | –
4 | COc1cccc(C2C=C(c3ccc(Br)s3)Nc3ncnn32)c1OC (centres undefined) | 9.72 µM (active) | > 26.5 µM (not active) | 8.66 µM (active) | – | –
5 | CN=C(S)N1N=C(c2ccccc2)CC1c1ccc(Br)cc1 (centres undefined) | 27.5 µM (not active) | > 79.4 µM (not active) | 27.8 µM (inactive) | – | –
6 | Cc1ccc(-c2cn3nc(C)c(C)nc3n2)cc1 | – | – | – | 5.3 µM (active) | –
7 | CC(=C\c1ccccc1)/C=C1/SC(=S)N(CCCC(=O)O)C1=O | – | – | – | – | IC50 (Phospholipase A2): 34.7 µM (inactive); IC50 (Cysteine protease ATG4B): 17.1 µM (active)
8 | COc1cccc(/C=C2/Sc3ccc(C(=O)NCCN4CCCC4)cc3NC2=O)c1 | – | – | – | 17.9 µM (active) | IC50 [5]: > 20 µM (inactive); AC50 [6]: 4.28 µM (active)
9 | COC(=O)c1ccc(-n2c(C)cc(C(=O)CCl)c2C)cc1 | – | – | – | 7.46 µM (active) | EC50 (Protein RecA): 22.7 µM (active); EC50 [7]: > 300 µM (not active); EC50 [8]: > 300 µM (not active); AC50 [9]: 5.18 µM (active)

— ChEMBL document CHEMBL1201862, “PubChem BioAssay data set” (2004)
